Reference: PubChem BioAssay AID276 (DTP/NCI, 2004)
“And” between values parts separate entries of the source, which are not always exact repeats. Equal entries are not always repeated. Inconclusive results and toxic doses are left out.

System: B6C3F1 mice, Lewis lung carcinoma iv, survival T/C
Test: NCI In Vivo Anticancer Drug Screen. Data for tumor model Lewis Lung Carcinoma (intravenous) in B6C3F1 mice
Settings: endpoint: median survival time, schedule: Q01DX009 (ip), higher = longer survival
Description: The antitumor activity of compounds was measured in mice bearing transplantable tumors. Survival or tumor size were measured and the results are expressed as the measurement made in the treated group (T) divided by the measurement made in the vehicle treated control group (C). The tumor model used in this assay is Lewis Lung Carcinoma (intravenous) in B6C3F1 mice

[1] = dose: 25.0 mg/kg/injection, vehicle: Klucel (hydroxypropylcellulose) (HPC)
[2] = dose: 50.0 mg/kg/injection, vehicle: Klucel (hydroxypropylcellulose) (HPC)
[3] = dose: 100.0 mg/kg/injection, vehicle: Klucel (hydroxypropylcellulose) (HPC)
[4] = dose: 200.0 mg/kg/injection, vehicle: Klucel (hydroxypropylcellulose) (HPC)
[5] = dose: 400.0 mg/kg/injection, vehicle: Klucel (hydroxypropylcellulose) (HPC)
[6] = dose: 1.5 mg/kg/injection, vehicle: water
[7] = dose: 3.0 mg/kg/injection, vehicle: water
[8] = dose: 12.0 mg/kg/injection, vehicle: water
[9] = dose: 12.5 mg/kg/injection, vehicle: Klucel (hydroxypropylcellulose) (HPC)
[10] = dose: 25.0 mg/kg/injection, vehicle: saline with Tween-80
[11] = dose: 50.0 mg/kg/injection, vehicle: saline with Tween-80
[12] = dose: 100.0 mg/kg/injection, vehicle: saline with Tween-80

`Cc1ccc(C2NC(=S)N3C(c4ccc(C)cc4)NC(=S)N23)cc1` (stereo unspecified) was tested, and the T/C [1] was 103 % of control, the T/C [2] was 101 % of control and the T/C [3] was 93 % of control. The T/C [4] was 99 % of control, the T/C [5] was 98 % of control and the T/C (dose: 800.0 mg/kg/injection, vehicle: Klucel (hydroxypropylcellulose) (HPC)) was 109 % of control.
For `CC12CC(C(=O)O)C3(O)CC(C)(C1)CC(C)(C2)C3` (stereo unspecified) (tested in a mixture with another compound), the T/C [3] was 124 % of control, the T/C [4] was 114 % of control and the T/C [5] was 98 % of control.
`O=N[O-].O=N[O-].O=N[O-].[Co+3].[NH-]CC[N-]CC[NH-]` was tested, and the T/C (dose: 6.25 mg/kg/injection, vehicle: saline) was 98 % of control, the T/C (dose: 12.5 mg/kg/injection, vehicle: saline) was 115 % of control and the T/C (dose: 25.0 mg/kg/injection, vehicle: saline) was 117 % of control. For the same compound, the T/C (dose: 50.0 mg/kg/injection, vehicle: saline) was 90 % of control.
For `CCCCCCCC(=O)N/N=C(\CO)[C@]1(O)Cc2c(O)c3c(c(O)c2[C@@H](OC2CC(N)C(O)C(C)O2)C1)C(=O)c1c(OC)cccc1C3=O` (stereo partly specified), the T/C (dose: 1.5 mg/kg/injection, vehicle: saline) was 100 % of control, the T/C [6] was 108 % of control and the T/C (dose: 3.0 mg/kg/injection, vehicle: saline) was 102 % of control. For the same compound, the T/C [7] was 104 % of control, the T/C (dose: 6.0 mg/kg/injection, vehicle: saline) was 105 % of control and the T/C (dose: 6.0 mg/kg/injection, vehicle: water) was 99 % of control. The T/C (dose: 12.0 mg/kg/injection, vehicle: saline) was 112 % of control, the T/C [8] was 92 % of control and the T/C (dose: 24.0 mg/kg/injection, vehicle: saline) was 87 % of control.
For `CCCCCC[C@H]([C@H](C)O)n1cnc2c(N)ncnc21`, the T/C (dose: 3.12 mg/kg/injection, vehicle: Klucel (hydroxypropylcellulose) (HPC)) was 88 % of control, the T/C (dose: 6.25 mg/kg/injection, vehicle: Klucel (hydroxypropylcellulose) (HPC)) was 101 % of control and the T/C [9] was 114 % of control. For the same compound, the T/C [1] was 94 % of control, the T/C [2] was 109 % of control and the T/C [3] was 105 % of control.
`CCOC(OCC)C(=O)OCC(=O)[C@]1(O)Cc2c(O)c3c(c(O)c2[C@@H](OC2CC(N)C(O)C(C)O2)C1)C(=O)c1c(OC)cccc1C3=O` (stereo partly specified) was tested, and the T/C (dose: 0.13 mg/kg/injection, vehicle: water) was 113 % of control, the T/C (dose: 0.5 mg/kg/injection, vehicle: water) was 116 % of control and the T/C (dose: 1.0 mg/kg/injection, vehicle: water) was 112 % of control. The T/C (dose: 2.0 mg/kg/injection, vehicle: water) was 120 % of control.
`C[CH2][Sn]([CH2]C)([O]S(C)(=O)=O)[O]S(C)(=O)=O` was tested, and the T/C (dose: 0.09 mg/kg/injection, vehicle: saline) was 108 % of control, the T/C (dose: 0.19 mg/kg/injection, vehicle: saline) was 97 % of control and the T/C (dose: 0.39 mg/kg/injection, vehicle: saline) was 99 % of control. The T/C (dose: 0.79 mg/kg/injection, vehicle: saline) was 109 % of control, the T/C (dose: 1.56 mg/kg/injection, vehicle: saline) was 93 % of control and 102 % of control and the T/C (dose: 3.12 mg/kg/injection, vehicle: saline) was 91 % of control and 87 % of control.
For `CCN1/C(=C/C=C/C=C\C=C\c2sc3ccc4ccccc4c3[n+]2CC)Sc2ccc3ccccc3c21`, the T/C (dose: 1.25 mg/kg/injection, vehicle: saline with Tween-80) was 104 % of control, the T/C (dose: 2.5 mg/kg/injection, vehicle: saline with Tween-80) was 100 % of control and 103 % of control and the T/C (dose: 5.0 mg/kg/injection, vehicle: saline with Tween-80) was 104 % of control. The T/C (dose: 10.0 mg/kg/injection, vehicle: saline with Tween-80) was 98 % of control and the T/C (dose: 20.0 mg/kg/injection, vehicle: saline with Tween-80) was 103 % of control.
For `COc1cccc2c1C(=O)c1c(O)c3c(c(O)c1C2=O)C[C@@](O)(C(=O)CO)C[C@@H]3OC1CC(OC(C)=O)C(OC(C)=O)C(C)O1` (stereo partly specified), the T/C (dose: 0.78 mg/kg/injection, vehicle: water) was 91 % of control, the T/C [6] was 119 % of control and the T/C (dose: 1.56 mg/kg/injection, vehicle: distilled water + Tween-80) was 106 % of control. For the same compound, the T/C (dose: 1.56 mg/kg/injection, vehicle: water) was 103 % of control, the T/C [7] was 111 % of control and the T/C (dose: 3.12 mg/kg/injection, vehicle: distilled water + Tween-80) was 113 % of control. The T/C (dose: 3.12 mg/kg/injection, vehicle: water) was 111 % of control, the T/C [8] was 266 % of control and the T/C (dose: 12.5 mg/kg/injection, vehicle: distilled water + Tween-80) was 285 % of control.
With `COc1cc2c(c(OC)c1OC)-c1c(cc3c(c1OC)OCO3)CC(C)C(C)(O)C2OC(=O)c1ccccc1` (stereo unspecified) the T/C (dose: 6.25 mg/kg/injection, vehicle: saline + alcohol) was 93 % of control, the T/C (dose: 12.5 mg/kg/injection, vehicle: saline + alcohol) was 96 % of control and the T/C (dose: 25.0 mg/kg/injection, vehicle: saline + alcohol) was 107 % of control. The T/C (dose: 50.0 mg/kg/injection, vehicle: saline + alcohol) was 102 % of control, the T/C (dose: 100.0 mg/kg/injection, vehicle: saline + alcohol) was 106 % of control and the T/C (dose: 200.0 mg/kg/injection, vehicle: saline + alcohol) was 103 % of control.
With `C[Si](C)(C)OSc1ccccc1[N+](=O)[O-]` the T/C [9] was 120 % of control, the T/C [1] was 110 % of control and the T/C [2] was 102 % of control. For the same compound, the T/C [3] was 102 % of control, the T/C [4] was 102 % of control and the T/C [5] was 104 % of control.
For `NC(C(=O)O)c1ccc(CBr)cc1` (stereo unspecified), the T/C (dose: 12.5 mg/kg/injection, vehicle: saline with Tween-80) was 97 % of control, the T/C [10] was 100 % of control and the T/C [11] was 105 % of control. For the same compound, the T/C [12] was 93 % of control.
For `CC1=C/C(O)CC(=O)Cc2nc(co2)C(=O)N2CCC=C2C(=O)OC(C(C)C)C(C)/C=C\C(=O)NC/C=C\1` (stereo unspecified), the T/C [1] was 98 % of control, the T/C [2] was 104 % of control and the T/C [3] was 92 % of control. The T/C [4] was 97 % of control and the T/C [5] was 104 % of control.
For `Cc1cc(O)c2c(c1O)C(=O)C13C(=C2O)C(=O)C2C(O)C1C1C(O)C3C(=O)C3=C(O)c4c(O)cc(C)c(O)c4C(=O)C321` (stereo unspecified), the T/C (dose: 0.78 mg/kg/injection, vehicle: saline with Tween-80) was 100 % of control, the T/C (dose: 1.56 mg/kg/injection, vehicle: saline with Tween-80) was 91 % of control and the T/C (dose: 3.12 mg/kg/injection, vehicle: saline with Tween-80) was 90 % of control.
For `O=c1nc(-c2ccco2)sc(=O)[nH]1`, the T/C (dose: 12.0 mg/kg/injection, vehicle: Klucel (hydroxypropylcellulose) (HPC)) was 112 % of control, the T/C [1] was 96 % of control and the T/C [2] was 105 % of control. For the same compound, the T/C [3] was 116 % of control and the T/C [4] was 104 % of control.
In the case of `CC(=O)Nc1cscc1NC(C)=O`, the T/C [10] is reported as 103 % of control, the T/C [11] is reported as 101 % of control and 106 % of control and the T/C [12] is reported as 98 % of control. The T/C (dose: 200.0 mg/kg/injection, vehicle: saline with Tween-80) was 94 % of control and 108 % of control and the T/C (dose: 400.0 mg/kg/injection, vehicle: saline with Tween-80) was 112 % of control and 88 % of control.
